Molecular target: T1, Carbonyl reductase 1 (CBR1) (Homo sapiens, UniProt P16152)
T1 construct: recombinant human CBR1
T1 sequence (P16152 2-277): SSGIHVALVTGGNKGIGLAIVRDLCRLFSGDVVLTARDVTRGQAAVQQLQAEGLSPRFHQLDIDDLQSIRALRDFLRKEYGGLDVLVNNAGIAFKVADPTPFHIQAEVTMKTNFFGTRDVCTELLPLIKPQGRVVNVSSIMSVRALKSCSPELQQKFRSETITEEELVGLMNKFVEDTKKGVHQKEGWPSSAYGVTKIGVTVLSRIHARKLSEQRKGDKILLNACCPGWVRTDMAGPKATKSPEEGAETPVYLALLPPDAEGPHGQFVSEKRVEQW
Test: conversion by recombinant enzyme, LC-MS/MS
Format: biochemical

C[C@]12CCC(=O)C=C1CC[C@@H]1[C@@H]2[C@@H](O)C[C@@]2(C)[C@H]1CC[C@]2(O)C(=O)CO [F, cortisol]
conversion by recombinant enzyme, LC-MS/MS: 1.2 ± 0.4 ng/mg CBR1 protein per minute
